SMILES strings stand for the structures.

In ChEMBL document CHEMBL3507680, “University of Dundee, Gates Library screen for HepG2 cell viability” one finds cytotoxicity data, which are given here for 98 molecules.

A short description of this data set: Human HepG2 cell viability assay in 384 well format. Conditions: HepG2 cells, read-out: Inhibition. Format: toxicity, cell-based. On the set-up: dose 125 nL, time 70.5 hour; cytotoxicity at 70.5 h: concentration not given beside the values.

As for `CC(C)Cc1noc(-c2ccc(NCc3noc(C(C)C)n3)nc2)n1`, the cytotoxicity at 70.5 h was -5.16%. Consider `CO[C@H]1C[C@@H](O)C12CCN(C(=O)c1cccc(CCC(C)(C)O)c1)CC2`, for which the cytotoxicity at 70.5 h is -0.132%. The same measure for `O=C(CCO)N[C@H]1CN(CC2CCC2)C[C@@H]1c1ccccc1`: -3.06%. With `Cc1ccsc1CN(c1nc(CCN)nc2ccccc12)C1CC1`, the cytotoxicity at 70.5 h was determined as 10.4%. In the case of `CN(CC1CCOC1)S(=O)(=O)c1cccc(C(=O)N2CCOCC2)c1` (stereo not drawn), the cytotoxicity at 70.5 h is -4.27%. For `Cc1cc(C)c2nc(CNC3CCNC3=O)cc(O)c2c1` (stereo not drawn) the value was -3.2%; for `Cc1cc(O)ccc1-c1cc(-c2cnn(C)c2C2CC2)c(C#N)c(N)n1`, 19.9%.

For `CSc1cccc(CNC(=O)C2CC(=O)N(C3CC3)C2)c1` (stereo not drawn), the cytotoxicity at 70.5 h is -1.83%.

Consider `COc1ncc(-c2ccc(NC(C)=O)cc2)c(OC)n1`, for which the cytotoxicity at 70.5 h was -11%. The same measure for `CN(Cc1cnc(N)nc1)C(=O)C1CCN(C(=O)C2CCCC2)CC1`: -4.62%; for `N#Cc1ccc(NCc2cc3n(n2)CCCN(C(=O)C2CCC2)C3)nc1`: -8.13%. For `CCc1ccccc1OCCN1CC[C@@]2(O)CCNC[C@H]2C1` the value was -3.34%; for `CCC1(O)CCCN(c2ncnc3c2c(C)nn3C)C1` (stereo not drawn), -4.68%. For `COc1ccc(NC(=O)CCC2CCCN(S(=O)(=O)C3CC3)C2)cc1Cl` (stereo not drawn) the value was 5.12%; for `Cc1nccc(N2CCC(Cc3cccc(C(=O)O)c3)CC2)n1`, -6.88%; for `CCCc1nnc(NCCc2noc(C3CCC3)n2)o1`, -10.7%. With `NC(=O)c1cc2c(nc1CCOc1ccc(F)cc1)CCC2`, the cytotoxicity at 70.5 h is -2.31%. Regarding `Cc1nn(C)c(C)c1CN(C)C1CCN(c2ncnc3[nH]cnc23)CC1`, the cytotoxicity at 70.5 h is 23.7%. Consider `COc1ccccc1[C@@H]1CN(Cc2nccn2C)C[C@H]1C(=O)O`, for which the cytotoxicity at 70.5 h is -3.84%. For `Cc1ccc2nc(C3CCCN3Cc3scnc3C)[nH]c2c1` (stereo not drawn) the value was -6.86%.

In the case of `Fc1ccccc1OC1CCN(CCn2cc3ccccc3n2)CC1`, the cytotoxicity at 70.5 h is -22%. The same measure for `Cc1cc(C)n(CC(=O)N2CCCCC2CCc2cccs2)c(=O)n1` (stereo not drawn): -13.4%; for `CSCC(=O)N1C[C@@H](C)[C@](O)(C(C)C)C1`: -7.39%. The same measure for `O=C(c1cnc(Nc2ccccc2)nc1)N1CCCC2(CCNC2)C1` (stereo not drawn): -8.38%. Consider `COc1ccc2[nH]c(=O)c(CN(C)CCN3CCCC3)cc2c1`, for which the cytotoxicity at 70.5 h is 57.1%. The same measure for `Cn1ncc2c(N[C@H]3CCCC[C@@H]3O)nc(C(C)(C)C)nc21`: -2.77%; for `COc1cnc(CN2CC(=O)N(c3ccc(C)cc3)CC2C)cc1O` (stereo not drawn): -5.7%; for `c1ccc(OCCN2CCN(c3ncnc4[nH]ccc34)CC2)cc1`: 24.7%. In the case of `CC(C)n1cnnc1CN(C)C(=O)C1CCCN(C2CCN(C)CC2)C1` (stereo not drawn), the cytotoxicity at 70.5 h is -3.47%.

In the case of `NC(=O)NCC(=O)N1CCCC(c2nccn2Cc2ccncc2)C1` (stereo not drawn), the cytotoxicity at 70.5 h is -1.01%. For `O=C(CC1CCc2ccccc21)NCCSc1cnn[nH]1` (stereo not drawn) the value was -9.43%. Turning to `CC1(C)CN(C(=O)CC2CCS(=O)(=O)CC2)C[C@]1(C)O`, the cytotoxicity at 70.5 h was -4.68%. For the molecule `O=C(c1cc(-c2cn[nH]c2)nc2ccc(F)cc12)N1CCSCC1`, the cytotoxicity at 70.5 h was -5.34%.

On to `COCC(=O)N1C[C@@H](C)[C@](O)(C(C)C)C1`, for which the cytotoxicity at 70.5 h is -3.63%. For `Cc1cccc(N2CCN(CC(=O)N3CCCC(N(C)C)CC3)CC2)c1` (stereo not drawn) the value was -4.61%; for `FC(F)(F)COc1cccc(-c2nc3c([nH]2)CCNC3)c1`, -4.72%; for `COCC(NC(=O)c1cc(NC(C)=O)ccc1Cl)c1ccccn1` (stereo not drawn), -5.35%.

For the molecule `CN1CCC(Oc2ccc(-n3ccnc3-c3nccn3C)cc2)CC1`, the cytotoxicity at 70.5 h is -8.7%. Regarding `O=C(NCC(O)c1cccc(F)c1)C1CCN(C(=O)C2CCC2)CC1` (stereo not drawn), the cytotoxicity at 70.5 h was -1.02%. The same measure for `CNc1cc(C)nc(-c2cc(NCCO)nc3[nH]ccc23)n1`: 11.9%.

For the molecule `CCc1cc(N[C@@H](CO)C(N)=O)n2nc(C)c(C)c2n1`, the cytotoxicity at 70.5 h was -2.72%. The same measure for `CCS(=O)(=O)N[C@H]1CN(Cc2noc(COC)n2)C[C@@H]1C1CC1`: -8.57%; for `CCN(Cc1nc(COC)no1)Cc1cccnc1NC(=O)C(C)(C)C`: -9.55%. Take `COCc1ncc(CN2CCC3(CCC(=O)N(CC(C)O)C3)CC2)cn1` (stereo not drawn): the cytotoxicity at 70.5 h was -9.93%.

With `CCCn1cnnc1-c1nc2c([nH]1)CC(c1ccc(Cl)cc1)CNC2=O` (stereo not drawn), the cytotoxicity at 70.5 h was 8.16%. The same measure for `COCCN1CCCC(CN(C)c2nc3c(s2)c(C)nn3C)C1` (stereo not drawn): -4.58%; for `CC1(C)CN(C(=O)c2cnc(-c3ccccn3)nc2)CC[C@]1(C)O`: 0.152%; for `COc1nccnc1-c1cc(NC2CCNCC2)nc2[nH]ccc12`: -0.195%. Regarding `Cc1cc(C)c2ncn(CCC(C)O)c(=O)c2c1` (stereo not drawn), the cytotoxicity at 70.5 h was -5.19%. On to `C[C@@H]1CN(c2nc3c(cc2C(N)=O)CCC3)CC[C@@]1(O)C1CCC1`, for which the cytotoxicity at 70.5 h was -12.9%. The same measure for `CN(C)Cc1nnc(C(=O)N(C)Cc2ccc(F)cc2)o1`: -4.17%; for `O=C(CC[C@@H]1CCCN2CCCC[C@H]12)NCCc1cc(O)ncn1`: -11.3%; for `CCC[C@@H]1CN(Cc2cnc3c(S(C)(=O)=O)cnn3c2)C[C@H]1N(C)C`: -7.08%. `Cc1ccc(N2Cc3cnn(Cc4ccc(F)cc4)c3C2)nn1`: the cytotoxicity at 70.5 h is -4.14%. For `CN(C)c1ncnc2c1CCN(C(=O)c1sccc1S(N)(=O)=O)C2` the value was -2.96%; for `CC(C)C1=NOC(c2nc(Cc3ccccc3)no2)C1` (stereo not drawn), -1.11%.

For `CCn1c(CN2CCCC2)nnc1C1CCN(Cc2ccncc2)CC1`, the cytotoxicity at 70.5 h came to 19.4%.

For `Cc1cc(C(=O)N2CCN(Cc3ccco3)C(CCO)C2)cc(=O)[nH]1` (stereo not drawn), the cytotoxicity at 70.5 h stood at 21.1%. For `COc1ccc(OCc2nc(C(=O)NCCN3CCOCC3)co2)cc1` the value was -5.59%. On to `OC1(CNCCSc2ccccn2)CNCCOC1` (stereo not drawn), for which the cytotoxicity at 70.5 h is 1.38%. For `O=c1[nH]c2cc3c(cc2cc1CN1CCCC1c1ccccn1)CCC3` (stereo not drawn) the value was 9.53%; for `Cc1cccc(OCC2CCCN(C(=O)CN(C)C3CCNCC3)C2)c1` (stereo not drawn), 11.3%.

For the molecule `COCc1cn(CC2CCN(Cc3c(C)[nH]c4ccccc34)CC2)nn1`, the cytotoxicity at 70.5 h was -7.19%.

As to `CC(C)CN(C)Cc1c[nH]nc1-c1ccc(F)cc1F`, the cytotoxicity at 70.5 h was -15%. The same measure for `O=C1CC(c2cccs2)c2cnn(C3CCCC3)c2N1` (stereo not drawn): 6.7%; for `CN(C)Cc1nnc(C2CCN(C(=O)CCc3cccs3)CC2)n1C`: -8.36%.

Regarding `CN(C)C(=O)N1C[C@@H]2CC[C@H](C1)N(C(=O)CCCn1cncn1)C2`, the cytotoxicity at 70.5 h is -10.6%.

For the molecule `O=C1N(Cc2cccc(F)c2F)CCCC1(O)CNC1CCCC1` (stereo not drawn), the cytotoxicity at 70.5 h was -2.45%. Regarding `CC(C)CN1CCCn2nc(CNC(=O)c3cccnc3O)cc2C1`, the cytotoxicity at 70.5 h amounted to 14.1%.

As to `Cn1cccc1-c1cc(C(=O)N2CCCC2c2cccnc2)[nH]n1` (stereo not drawn), the cytotoxicity at 70.5 h was -4.46%. The same measure for `CN(CCN1CCCCC1)C(=O)c1cc(CN2CCOCC2)on1`: 2.75%. For `CC(C)c1nc(N2CC(N3CCCCC3C)C2)c2cnn(C)c2n1` (stereo not drawn) the value was 12%; for `O=C(NC1CCCC1)N1CCCC(c2nccn2Cc2ccncc2)C1` (stereo not drawn), 0.665%; for `O=C(NC[C@@H]1CCCN1)c1cc(COc2cccc(C(F)(F)F)c2)[nH]n1`, -1.5%.

For `CN(CCc1ccccc1)c1cnn(CC(=O)N2CCSCC2)c(=O)c1`, the cytotoxicity at 70.5 h is -3.48%.

As to `Cc1ccccc1CC1(CO)CCCN(c2ncccc2C#N)C1` (stereo not drawn), the cytotoxicity at 70.5 h is -4.27%.

As for `CN(C)C(=O)N1CCn2nc(CNC(=O)CCC(F)(F)F)cc2C1`, the cytotoxicity at 70.5 h is -3.05%.

Consider `CSc1ccccc1CN1CCn2nc(CNC(C)=O)cc2C1`, for which the cytotoxicity at 70.5 h was -0.83%. For `CCNC(=O)[C@@H]1C[C@@H](NC(=O)c2cccnc2O)CN1Cc1ccsc1` the value was -11.2%; for `NC(=O)NCC(=O)N1C[C@H]2CC[C@@H]1CN(Cc1ccccc1)C2`, 1.42%. The same measure for `CN1CC(c2ccccc2)CC2(CCN(CC(=O)N(C)C)CC2)C1` (stereo not drawn): -8.78%; for `O=C(c1ccc[nH]1)N1C[C@H]2CC[C@@H]1CN(c1ncccn1)C2`: -8.11%; for `O=C(c1cccc(S(=O)(=O)NCCCc2ncc[nH]2)c1)N1CCOCC1`: -9.14%. The same measure for `CC[C@@]1(O)CCN(C(=O)c2ccsc2)C[C@H]1O`: -7.08%. As for `CC(C)(C)c1cc(CN2CC[C@@H](NC(=O)c3cccnc3)[C@H](O)C2)n[nH]1`, the cytotoxicity at 70.5 h came to 0.738%. The same measure for `N#Cc1c(SCCN2CCOCC2)sc2c(O)cc(O)nc12`: 17.3%.

Take `N#Cc1c(SCCN2CCCCCC2)sc2c(O)cc(O)nc12`: the cytotoxicity at 70.5 h was determined as 12.1%. As to `CCC(NC(=O)c1c(C(=O)O)cnn1C)c1ccc(C)cc1C` (stereo not drawn), the cytotoxicity at 70.5 h was -3.68%. Regarding `CC(C)c1cc(CSCCC(=O)O)no1`, the cytotoxicity at 70.5 h was -4.33%. For `Cc1c2c(C(F)F)cc(SCC(=O)O)nc2nn1C` the value was -2.86%; for `CCn1cc(N)c(-c2nnc3n2CCC3)n1`, 13.1%. The same measure for `CCOc1ccccc1C(=O)Nn1c(C)cc(C)cc1=O`: -6.5%; for `Cn1ncc(NC(=O)c2noc3c2CCCC3)c1C(N)=O`: -5.51%. As to `CCN(CC)C1COc2c(cc(Br)c(C)c2Br)C1=O` (stereo not drawn), the cytotoxicity at 70.5 h was -7.72%.

As to `CCN(CC)C1COc2ccc(Br)cc2C1=O` (stereo not drawn), the cytotoxicity at 70.5 h is -5.6%. `CCc1c(O)n(C(C)CC)c(SCC(=O)c2ccccc2)nc1=O` (stereo not drawn): the cytotoxicity at 70.5 h was -8.65%. For `Cn1cc(C(=O)NC(Cn2cccn2)C(C)(C)C)cn1` (stereo not drawn) the value was 2.11%; for `Cc1cn(Cc2ccc(F)c(F)c2)nc1N`, 19.5%.
